How the values were obtained:
[1] = molecular target: 5-hydroxytryptamine receptor 4 (Cavia porcellus, UniProt O70528); test: Displacement of [3H]GR113808 from 5HT4 receptor in guinea pig striatal membranes; format: cell membranes, Striatum, Membrane
[2] = molecular target: 5-hydroxytryptamine receptor 4 (Cavia porcellus) (UniProt O70528); test: Displacement of [3H]GR113808 from 5HT4 receptor in guinea pig striatal membranes at 1 uM; format: cell membranes; conditions: Striatum, Membrane
Chain of 5-hydroxytryptamine receptor 4 (Cavia porcellus) (O70528 whole entry): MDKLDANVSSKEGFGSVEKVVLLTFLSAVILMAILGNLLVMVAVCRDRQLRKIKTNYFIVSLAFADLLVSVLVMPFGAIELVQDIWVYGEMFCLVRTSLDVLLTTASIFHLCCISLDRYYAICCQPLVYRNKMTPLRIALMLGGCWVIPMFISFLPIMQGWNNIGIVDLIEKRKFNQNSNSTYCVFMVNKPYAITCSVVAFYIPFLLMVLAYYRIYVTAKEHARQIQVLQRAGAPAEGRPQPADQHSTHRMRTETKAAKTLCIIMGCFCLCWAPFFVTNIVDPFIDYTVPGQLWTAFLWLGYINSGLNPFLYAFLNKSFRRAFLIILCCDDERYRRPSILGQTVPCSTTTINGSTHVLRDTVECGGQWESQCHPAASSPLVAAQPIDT

Chain of 5-hydroxytryptamine receptor 4 (O70528 whole entry): as above

Compound	Ki [1] [nM]	inhibition [2] [%]
C#CCN1CCC(COc2nc3scc(C)c3n3cccc23)CC1	891	85
Cc1csc2nc(OCC3CCN(C/C=C/I)CC3)c3cccn3c12	129	87
